# From patent US8193160B2 (priority 2006, dated 2012)
# How the values were obtained:
# abc3Δ mutant = format: cell-based, Magnaporthe grisea
# [1] = test system: Magnaporthe vegetative mycelia, abc3Δ mutant; format: cell-based
Compound,growth under oxidative stress (abc3Δ mutant),"Minimum Inhibitory Concentration (MIC), abc3Δ [1] [µg/mL]"
OO [hydrogen peroxide],lethal,
C[C@H]1CCC/C=C/[C@@H]2C[C@H](O)C[C@H]2[C@H](O)/C=C/C(=O)O1 [Brefeldin A],,40
OC(Cn1cncn1)(Cn1cncn1)c1ccc(F)cc1F [Fluconazole],,2500
CC(C)[C@@H]1NC(=O)[C@H](C)OC(=O)[C@@H](C(C)C)NC(=O)[C@@H](C(C)C)OC(=O)[C@H](C(C)C)NC(=O)[C@H](C)OC(=O)[C@@H](C(C)C)NC(=O)[C@@H](C(C)C)OC(=O)[C@H](C(C)C)NC(=O)[C@H](C)OC(=O)[C@@H](C(C)C)NC(=O)[C@@H](C(C)C)OC1=O [Valinomycin],,3
CCCCNC(=O)n1c(NC(=O)OC)nc2ccccc21 [Benomyl],,2
CCC(=C/[C@H](C)C/C=C/C(C)=C/[C@@H](C)C(=O)[C@@H](C)[C@H](O)[C@@H](C)C/C(C)=C/C(=O)O)/C=C/[C@@H]1OC(=O)C=C[C@@H]1C [Leptomycin B],,0.0075
Actinomycin D,,3.5
Gramicidin D,,180
